Data published in US6555692B1, “Preparation and use of bifunctional molecules having DNA sequence binding specificity” (California Institute of Technology, priority 1996, dated 2003).

Columns and labels:
5′-TGCGCA-3′ = assay: DNase I footprint titration, pSES9hp fragment; type: binding
Description: The experimental target plasmid pSES9hp was constructed by hybridization of the inserts:
The plasmid pSES9hp was linearized with EcoRI and PvuII and then treated with Klenow fragment, deoxyadenosine 5′-[α-^32P]triphosphate and thymidine 5′-[α-^32P]triphosphate for 3′ labeling. Alternatively, pSES9hp was linearized with EcoRI, treated with calf alkaline phosphatase, and then 5′ labeled with T4 polynucleotide kinase and deoxyadenosine 5′- [γ-^32P]triphosphate. The 5′ labeled fragment was then digested with PvuII. The labeled fragment (3′ or 5′) was loaded onto a 5% non-denaturing polyacrylamide gel, and the desired 282 base pair band was visualized by autoradiography and isolated. Chemical sequencing reactions were performed according to published methods. (Maxam, A. M. & Gilbert, W. S. (1980). Sequencing End-Labeled DNA with Base-Specific Chemical Cleavages. Methods Enzymol. 65, 499-560; Iverson, B. L. & Dervan, P. B. (1987). Adenine-specific DNA chemical sequencing reaction. […], 7823-7830.)

5′-AGTATT-3′ = assay: Quantitative DNase I footprint titration, 229 bp restriction fragment; type: binding
Procedure: (§1) ImPyPyPy-γ-ImPyPyPy-β-Dp and ImPyPyPy-γ-PyPyPyPy-β-Dp were synthesized by solid phase methods and purified by reversed phase HPLC. Equilibrium association constants for match and mismatch six base pair binding sites on a 3′^32P-labeled 229 bp restricted fragment were determined by quantitative DNase I footprint titration experiments. […] The specificity of ImPyPyPy-γ-ImPyPyPy-β-Dp and ImPyPyPy-γ-PyPyPyPy-β-Dp for their respective match sites results from very small structural changes.

5′-AACCAAGTACTTGGTA-3′ = assay: Association constants, recognition of 16 base pairs; type: binding; settings: for Specificity 5′-AACCAACTAGTTGGTA: Table 8, center mismatch; for Specificity 5′-AACCAAGTACTTGCGA: Table 8, edge mismatch; for Ka 5′-AACCAAGTACTTGGTA: Table 8, match site
Description: Table 8 illustrates recognition of 16 Base-Pairs by ImPyPyPy-X-ImImPy-γ-PyPyPy-β-Dp.

5′-AGTACT-3′ = assay: Quantitative DNase I footprint titration, 229 bp restriction fragment; type: binding
Procedure: as §1

5′-TGTTA-3′ = settings: cited from earlier work
5′-TGTCAGACA-3′ = assay: Recognition of 9-11 base pairs (Table 9); type: binding; settings: 22° C. and pH 7.0
Description: (§2) Table 9 illustrates recognition of recognition of 9-11 base pairs by ImPyPy-X-ImPyPy-β-Dp.

5′-TGTCAAAGACA-3′ = assay: Recognition of 9-11 base pairs (Table 9); type: binding; settings: 22° C. and pH 7.0
Description: as §2

5′-gcggtTGTCAacccg-3′ = assay: Recognition of 9-11 base pairs (Table 9); type: binding; settings: 22° C. and pH 7.0
Description: as §2

5′-TGTCAAGACA-3′ = assay: Recognition of 9-11 base pairs (Table 9); type: binding; settings: 22° C. and pH 7.0
Description: as §2

[1] = test system: 282 bp EcoRI/PvuII restriction fragment from plasmid pSES9hp (5′-TGGCCA-3′, 5′-TGCGCA-3′, 5′-TGGGGA-3′ sites); assay: Affinity cleaving, identification of binding orientation; settings: 25 mM Tris-acetate, 10 mM NaCl, 100 μM/base pair calf thymus DNA, pH 7.0, 22° C.
Procedure: Affinity cleavage assays (25 mM Tris-acetate, 10 mM NaCl, 100 μM/base pair calf thymus DNA, pH 7.0 and 22° C.) were performed in order to identify the binding orientations of the EDTA analogues of the three hairpin polyamides: ImImPyPy-γ-ImImPyPy-β-Dp-EDTA, ImPyImPy-γ-ImPyImPy-β-Dp-EDTA , and ImImImIm-γ-PyPyPyPy-β-Dp-EDTA.
Depicted in FIG. 17 is a representative affinity cleaving experiment on a 3′-^32P-labeled 282 bp EcoRI/PvuII restriction fragment from plasmid pSES9hp. […] Lane 1, A reaction; lane 2, C reaction; lanes 3-5, 1 μM, 2 μM and 5 μM ImImPyPy-γ-ImImPyPy-β-Dp-EDTA (1-E); lanes 6-8, 1 μM, 2 μM and 5 μM ImPyImPy-γ-ImPyImPy-β-Dp-EDTA (2-E); lanes 9-11, 1 μM, 2 μM and 5 μM ImImImIm-γ-PyPyPyPy-β-Dp-EDTA (3-E); lane 12, intact DNA. All lanes contain 15 kcpm 3′-radiolabeled DNA, 25 mM Tris-acetate buffer (pH 7.0), 10 mM NaCl, and 100 μM/base pair calf thymus DNA. (Right) Affinity cleavage patterns for ImImPyPy-γ-ImImPyPy-β-Dp-EDTA and ImPyImPy-γ-ImPyImPy-β-Dp-EDTA at 1 μM concentration, and ImImImIm-γ-PyPyPyPy-β-Dp-EDTA at 5 μM concentration. Illustration of the 282 bp restriction fragment with the position of the sequence indicated. Bar heights are proportional to the […] at each band. Boxes represent equilibrium binding sites determined by the published model, and only sites that were quantitated by DNase I footprint titrations are boxed.

Compound	5′-TGTCAGACA-3′ (5′-TGTCAGACA-3′)	5′-TGTCAAAGACA-3′ (5′-TGTCAAAGACA-3′)	5′-gcggtTGTCAacccg-3′ (5′-gcggtTGTCAacccg-3′)	5′-TGTCAAGACA-3′ (5′-TGTCAAGACA-3′)	also measured
Im-β-ImPy-γ-Im-β-ImPy-β-Dp [Im-βImPy-γ-Im-β-ImPy-β-Dp]					affinity (in words) (5′-TGCGCA-3′; 5′-TGCGCA-3′ sequences): subnanomolar affinities
CN(C)CCCNC(=O)CCNC(=O)c1cc(NC(=O)c2cc(NC(=O)c3cc(NC(=O)c4cc(NC(=O)CCCNC(=O)c5cc(NC(=O)c6cc(NC(=O)c7cc(NC(=O)c8nccn8C)cn7C)cn6C)cn5C)cn4C)cn3C)cn2C)cn1C [ImPyPyPy-γ-PyPyPyPy-β-Dp]					loss in binding energy (5′-AGTATT-3′; C—H to N replacement, 5′-AGTATT-3′ complex): ~1.3 kcal/mol; Kd (5′-AGTATT-3′; match site 5′-AGTATT-3′, read-out: concentration at which the match site is bound): 0.3 nM; lower affinity for single base pair mismatch site (5′-AGTATT-3′; mismatch 5′-AGTACT-3′ vs match 5′-AGTATT-3′): ~10 fold; reduction of affinity of the polyamide•5′-AGTATT-3′ complex on replacing a C—H with N (5′-AGTATT-3′; vs ImPyPyPy-γ-ImPyPyPy-β-Dp): ~10 fold
CN(C)CCCNC(=O)CCNC(=O)c1cc(NC(=O)c2cc(NC(=O)c3cc(NC(=O)CCCNC(=O)c4cc(NC(=O)c5nc(NC(=O)c6nc(NC(=O)CCNC(=O)CCNC(=O)c7cc(NC(=O)c8cc(NC(=O)c9cc(NC(=O)c%10nccn%10C)cn9C)cn8C)cn7C)cn6C)cn5C)cn4C)cn3C)cn2C)cn1C [ImPyPyPy-β-β-ImImPy-γ-PyPyPy-β-Dp]					Specificity 5′-AACCAACTAGTTGGTA (5′-AACCAAGTACTTGGTA-3′): 1; Specificity 5′-AACCAAGTACTTGCGA (5′-AACCAAGTACTTGGTA-3′): 1; Ka 5′-AACCAAGTACTTGGTA (5′-AACCAAGTACTTGGTA-3′): 3 × 10^8
CN(C)CCCNC(=O)CCNC(=O)c1cc(NC(=O)c2cc(NC(=O)c3cc(NC(=O)c4nc(NC(=O)CCCNC(=O)c5cc(NC(=O)c6cc(NC(=O)c7cc(NC(=O)c8nccn8C)cn7C)cn6C)cn5C)cn4C)cn3C)cn2C)cn1C [ImPyPyPy-γ-ImPyPyPy-β-Dp]					free energy difference (5′-AGTACT-3′; N to C—H replacement, 5′-AGTACT-3′ complex): ~2.5 kcali/mole; Kd (5′-AGTACT-3′; match site 5′-AGTACT-3′, read-out: concentration at which the match site is bound): 0.03 nM; lower affinity for single base pair mismatch site (5′-AGTACT-3′; mismatch 5′-AGTATT-3′ vs match 5′-AGTACT-3′): ~100 fold; reduction of affinity of the polyamide•5′-AGTACT-3′ complex on replacing a single nitrogen atom with C—H (5′-AGTACT-3′; vs ImPyPyPy-γ-PyPyPyPy-β-Dp): ~75 fold
CN(C)CCCNC(=O)CCNC(=O)c1cc(NC(=O)c2cc(NC(=O)c3cc(NC(=O)CCCNC(=O)c4cc(NC(=O)c5nc(NC(=O)c6nc(NC(=O)CCCCNC(=O)c7cc(NC(=O)c8cc(NC(=O)c9cc(NC(=O)c%10nccn%10C)cn9C)cn8C)cn7C)cn6C)cn5C)cn4C)cn3C)cn2C)cn1C [ImPyPyPy-C5-ImImPy-γ-PyPyPy-β-Dp]					Specificity 5′-AACCAACTAGTTGGTA (5′-AACCAAGTACTTGGTA-3′): >3; Specificity 5′-AACCAAGTACTTGCGA (5′-AACCAAGTACTTGGTA-3′): >3; Ka 5′-AACCAAGTACTTGGTA (5′-AACCAAGTACTTGGTA-3′): 7 × 10^8
ImPyPy-γ-PyPyPy-Dp					sequence-specificity versus single base pair mismatch sites (5′-TGTTA-3′): 30 fold
CN(C)CCCNC(=O)CCNC(=O)c1cc(NC(=O)c2nc(NC(=O)c3cc(NC(=O)c4nc(NC(=O)CCCNC(=O)c5cc(NC(=O)c6nc(NC(=O)c7cc(NC(=O)c8nccn8C)cn7C)cn6C)cn5C)cn4C)cn3C)cn2C)cn1C [ImPyImPy-γ-ImPyImPy-β-Dp]					Ka (5′-TGCGCA-3′): 4e+07 M⁻¹; specificity (5′-TGCGCA-3′): 4 fold
CN(C)CCCNC(=O)CCNC(=O)c1cc(NC(=O)c2cc(NC(=O)c3nc(NC(=O)CNC(=O)c4cc(NC(=O)c5cc(NC(=O)c6nccn6C)cn5C)cn4C)cn3C)cn2C)cn1C [ImPyPy-G-ImPyPy-β-Dp]	1 × 10^8	3 × 10^7	3 × 10^7	3 × 10^7	
CN(C)CCCNC(=O)CCNC(=O)c1cc(NC(=O)c2cc(NC(=O)c3nc(NC(=O)CCCNC(=O)c4cc(NC(=O)c5cc(NC(=O)c6nccn6C)cn5C)cn4C)cn3C)cn2C)cn1C [ImPyPy-γ-ImPyPy-β-Dp]	5 × 10^7	1 × 10^8	2 × 10^8	1 × 10^8	
CN(C)CCCNC(=O)CCNC(=O)c1cc(NC(=O)c2cc(NC(=O)c3nc(NC(=O)CCNC(=O)c4cc(NC(=O)c5cc(NC(=O)c6nccn6C)cn5C)cn4C)cn3C)cn2C)cn1C [ImPyPy-β-ImPyPy-β-Dp]	2 × 10^8	1 × 10^9	1 × 10^9	2 × 10^8	
CN(C)CCCNC(=O)CCNC(=O)c1cc(NC(=O)c2cc(NC(=O)c3nc(NC(=O)CCCCCCCCCCNC(=O)c4cc(NC(=O)c5cc(NC(=O)c6nccn6C)cn5C)cn4C)cn3C)cn2C)cn1C [ImPyPy-C11-ImPyPy-β-Dp]	5 × 10^6	2 × 10^7	1 × 10^7	2 × 10^7	
CN(C)CCCNC(=O)CCNC(=O)c1cc(NC(=O)c2cc(NC(=O)c3nc(NC(=O)CCNC(=O)CCNC(=O)c4cc(NC(=O)c5cc(NC(=O)c6nccn6C)cn5C)cn4C)cn3C)cn2C)cn1C [ImPyPy-β-β-ImPyPy-β-Dp]	1 × 10^7	1 × 10^7	2 × 10^7	5 × 10^7	
CN(C)CCCNC(=O)CCNC(=O)c1cc(NC(=O)c2cc(NC(=O)c3nc(NC(=O)CCNC(=O)c4cc(NC(=O)CCNC(=O)c5cc(NC(=O)c6cc(NC(=O)c7nccn7C)cn6C)cn5C)cn4C)cn3C)cn2C)cn1C [ImPyPy-β-Py-β-ImPyPy-β-Dp]	3 × 10^8	1 × 10^9		2 × 10^8	Ka (5′-gcggtTGTCAacccg-3′): < 1e+08 M⁻¹
ImImImIm-γ-PyPyPyPy-β-Dp-EDTA					binding orientation by affinity cleaving [1]: single orientation
CN(C)CCCNC(=O)CCNC(=O)c1cc(NC(=O)c2cc(NC(=O)c3nc(NC(=O)CCNC(=O)CCNC(=O)CCNC(=O)c4cc(NC(=O)c5cc(NC(=O)c6nccn6C)cn5C)cn4C)cn3C)cn2C)cn1C [ImPyPy-β-β-β-ImPyPy-β-Dp]	1 × 10^7	7 × 10^7	1 × 10^7	1 × 10^7	
CN(C)CCCNC(=O)CCNC(=O)c1cc(NC(=O)c2cc(NC(=O)c3nc(NC(=O)CCCCCCCNC(=O)c4cc(NC(=O)c5cc(NC(=O)c6nccn6C)cn5C)cn4C)cn3C)cn2C)cn1C [ImPyPy-C8-ImPyPy-β-Dp]	1 × 10^7	1 × 10^7	1 × 10^7	3 × 10^7	
CN(C)CCCNC(=O)CCNC(=O)c1cc(NC(=O)c2cc(NC(=O)c3cc(NC(=O)CCCNC(=O)c4cc(NC(=O)c5nc(NC(=O)c6nc(NC(=O)CCCCCNC(=O)c7cc(NC(=O)c8cc(NC(=O)c9cc(NC(=O)c%10nccn%10C)cn9C)cn8C)cn7C)cn6C)cn5C)cn4C)cn3C)cn2C)cn1C [ImPyPyPy-C6-ImImPy-γ-PyPyPy-β-Dp]					Specificity 5′-AACCAACTAGTTGGTA (5′-AACCAAGTACTTGGTA-3′): 1; Specificity 5′-AACCAAGTACTTGCGA (5′-AACCAAGTACTTGGTA-3′): 1; Ka 5′-AACCAAGTACTTGGTA (5′-AACCAAGTACTTGGTA-3′): 1 × 10^8
cyclo-(ImPyPy-γ-PyPyPy-γ-)					equilibrium association constant Ka (5′-TGTTA-3′; 5′-TGTTA-3′ target site, prior art): 2.9e+09 M⁻¹; increase in Ka relative to the corresponding hairpin polyamide ImPyPy-γ-PyPyPy (5′-TGTTA-3′; 5′-TGTTA-3′): 40 fold; sequence-specificity versus single base pair mismatch sites (5′-TGTTA-3′): 2 fold
CN(C)CCCNC(=O)CCNC(=O)c1cc(NC(=O)c2cc(NC(=O)c3nc(NC(=O)CCCCNC(=O)c4cc(NC(=O)c5cc(NC(=O)c6nccn6C)cn5C)cn4C)cn3C)cn2C)cn1C [ImPyPy-C5-ImPyPy-β-Dp]	2 × 10^8	1 × 10^9	1 × 10^9	1 × 10^9	
